The results in this text go back to patent US6423689B1, “Peptidyl calcium channel blockers” (Warner-Lambert Company, priority 1997, dated 2002).

Data set [1] concerns the target T1, N-type Ca2+ channels in IMR-32 cells (Homo sapiens, UniProt Q00975).
T1 construct: host or cells: IMR-32 cells, differentiated with dibutyryl cAMP and bromodeoxyuridine
In words: Inhibition of N-type calcium flux in IMR-32 cells (Indo-1 fluorescence, nitrendipine present). It is filed as cell-based. The settings on record: for inhibition at 1 µM / inhibition at 10 µM: IMR-32; for IC50: IMR-32 cells, 5 μM nitrendipine, K+ depolarization. In a few lines: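 Differentiated IMR-32 cells (7–13 days) were loaded with 5 μM Indo-1 AM, preincubated with compound for 10 min at 30° C, and depolarized with KCl/CaCl2 stimulation solution, with 5 μM nitrendipine blocking L-channels. Peak-minus-basal 400/490 nm emission ratio was plotted against drug concentration, and IC50 came from four-parameter logistic fits.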
A general note: Calcium flux is commonly read through the fluorescence of an indicator in the cells.

In data set [2] the target is T2, L-type Ca2+ channels in A10 cells (Rattus norvegicus, UniProt P22002).
T2 construct: which endogenously expresses L-type calcium channels; host or cells: A10 rat aortic smooth muscle cells
Nature of the data set: Inhibition of L-type calcium flux in A10 cells (FLIPR). It is filed as cell-based. The procedure:
Measurement of L-type Ca^2+ Channel Blocking Potencies of Compounds in A10 cells
Calcium flux through voltage-sensitive calcium channels was assessed by time-resolved monitoring of the fluorescence of pre-loaded calcium-sensitive dyes using FLIPR, a fluorescent image plate reader (Molecular Devices Co.). The A10 smooth muscle cell line derived from embryonic thoracic aorta of the DBIX rat (ATCC, CRL-1476) which endogenously expresses L-type calcium channels. The growth media for A10 cells was Ham's F12/DME high glucose (Irvine Scientific, 9052), supplemented with 20% fetal bovine serum (HyClone Labs, A-1115-L), and 1% each of L-glutamine and antibiotic-antimycotic (same source as above).
Cells were grown to confluency and replated on black-sided 96-well plates (Costar, 3603) for use in FLIPR. Two days after replating, growth media was removed and cells were loaded at 37° C. with 100 μL media containing 1 μM Oregon Green 488 Bapta-1 dye (Molecular Probes, O-6807) for 1 to 3 hours. The dye-containing media was then washed away with buffer (composition in mM: 1.25 CaCl2, 1.2 MgSO4, 11 glucose, 10 HEPES, 3.0 KCl, 137.0 NaCl, pH 7.4 with Tris base) in a Denley Cellwash (Labsystems, CW018B). The residual buffer volume was adjusted to 50 μL. A 5 minute drug-pre-incubation period at 35° C. was initiated when 50 μL of drug-containing buffer was pipetted into the cell plate with the 96-well pipettor integrated in the FLIPR apparatus. Fluorescent counts were monitored at 20 second intervals for 360 seconds, beginning 60 seconds prior to the delivery of drug-containing buffer. Following drug addition, 100 μL aliquots of a high K^+, depolarizing stimulus (composition in mM: 1.25 CaCl2, 1.2 MgSO4, 11 glucose, 10 HEPES, 140.0 KCl, pH 7.4 with Tris base) were added to each well and fluorescence was monitored at 1 second intervals for 120 seconds, beginning 10 seconds prior to the stimulus addition. CCD camera exposure time was 0.4 seconds, laser excitation was at 488 nm with a power of 0.2-0.5W, and a 510 to 560 nm bandpass interference filter preceded the camera.
Data was analyzed as a summation of fluorescent counts above basal during the stimulation period (an approximation of area under the curve), after normalizing the data with a spatial uniformity correction (for variations in laser illumination and cell density) and a negative control correction (zero calcium increase defined as the fluorescence reading in the presence of saturating pharmacologic block of the respective calcium channel). Drug effects were expressed as percent inhibition of fluorescence from an average of 8 K^+-stimulated wells which were pre-treated in the drug incubation period with buffer only.
In the A10 cells, the pharmacologic agent used to define zero calcium influx was nitrendipine (RBI, N-144), at a final concentration of 1.0×10^−6 M.

T2 sequence (P22002 whole entry): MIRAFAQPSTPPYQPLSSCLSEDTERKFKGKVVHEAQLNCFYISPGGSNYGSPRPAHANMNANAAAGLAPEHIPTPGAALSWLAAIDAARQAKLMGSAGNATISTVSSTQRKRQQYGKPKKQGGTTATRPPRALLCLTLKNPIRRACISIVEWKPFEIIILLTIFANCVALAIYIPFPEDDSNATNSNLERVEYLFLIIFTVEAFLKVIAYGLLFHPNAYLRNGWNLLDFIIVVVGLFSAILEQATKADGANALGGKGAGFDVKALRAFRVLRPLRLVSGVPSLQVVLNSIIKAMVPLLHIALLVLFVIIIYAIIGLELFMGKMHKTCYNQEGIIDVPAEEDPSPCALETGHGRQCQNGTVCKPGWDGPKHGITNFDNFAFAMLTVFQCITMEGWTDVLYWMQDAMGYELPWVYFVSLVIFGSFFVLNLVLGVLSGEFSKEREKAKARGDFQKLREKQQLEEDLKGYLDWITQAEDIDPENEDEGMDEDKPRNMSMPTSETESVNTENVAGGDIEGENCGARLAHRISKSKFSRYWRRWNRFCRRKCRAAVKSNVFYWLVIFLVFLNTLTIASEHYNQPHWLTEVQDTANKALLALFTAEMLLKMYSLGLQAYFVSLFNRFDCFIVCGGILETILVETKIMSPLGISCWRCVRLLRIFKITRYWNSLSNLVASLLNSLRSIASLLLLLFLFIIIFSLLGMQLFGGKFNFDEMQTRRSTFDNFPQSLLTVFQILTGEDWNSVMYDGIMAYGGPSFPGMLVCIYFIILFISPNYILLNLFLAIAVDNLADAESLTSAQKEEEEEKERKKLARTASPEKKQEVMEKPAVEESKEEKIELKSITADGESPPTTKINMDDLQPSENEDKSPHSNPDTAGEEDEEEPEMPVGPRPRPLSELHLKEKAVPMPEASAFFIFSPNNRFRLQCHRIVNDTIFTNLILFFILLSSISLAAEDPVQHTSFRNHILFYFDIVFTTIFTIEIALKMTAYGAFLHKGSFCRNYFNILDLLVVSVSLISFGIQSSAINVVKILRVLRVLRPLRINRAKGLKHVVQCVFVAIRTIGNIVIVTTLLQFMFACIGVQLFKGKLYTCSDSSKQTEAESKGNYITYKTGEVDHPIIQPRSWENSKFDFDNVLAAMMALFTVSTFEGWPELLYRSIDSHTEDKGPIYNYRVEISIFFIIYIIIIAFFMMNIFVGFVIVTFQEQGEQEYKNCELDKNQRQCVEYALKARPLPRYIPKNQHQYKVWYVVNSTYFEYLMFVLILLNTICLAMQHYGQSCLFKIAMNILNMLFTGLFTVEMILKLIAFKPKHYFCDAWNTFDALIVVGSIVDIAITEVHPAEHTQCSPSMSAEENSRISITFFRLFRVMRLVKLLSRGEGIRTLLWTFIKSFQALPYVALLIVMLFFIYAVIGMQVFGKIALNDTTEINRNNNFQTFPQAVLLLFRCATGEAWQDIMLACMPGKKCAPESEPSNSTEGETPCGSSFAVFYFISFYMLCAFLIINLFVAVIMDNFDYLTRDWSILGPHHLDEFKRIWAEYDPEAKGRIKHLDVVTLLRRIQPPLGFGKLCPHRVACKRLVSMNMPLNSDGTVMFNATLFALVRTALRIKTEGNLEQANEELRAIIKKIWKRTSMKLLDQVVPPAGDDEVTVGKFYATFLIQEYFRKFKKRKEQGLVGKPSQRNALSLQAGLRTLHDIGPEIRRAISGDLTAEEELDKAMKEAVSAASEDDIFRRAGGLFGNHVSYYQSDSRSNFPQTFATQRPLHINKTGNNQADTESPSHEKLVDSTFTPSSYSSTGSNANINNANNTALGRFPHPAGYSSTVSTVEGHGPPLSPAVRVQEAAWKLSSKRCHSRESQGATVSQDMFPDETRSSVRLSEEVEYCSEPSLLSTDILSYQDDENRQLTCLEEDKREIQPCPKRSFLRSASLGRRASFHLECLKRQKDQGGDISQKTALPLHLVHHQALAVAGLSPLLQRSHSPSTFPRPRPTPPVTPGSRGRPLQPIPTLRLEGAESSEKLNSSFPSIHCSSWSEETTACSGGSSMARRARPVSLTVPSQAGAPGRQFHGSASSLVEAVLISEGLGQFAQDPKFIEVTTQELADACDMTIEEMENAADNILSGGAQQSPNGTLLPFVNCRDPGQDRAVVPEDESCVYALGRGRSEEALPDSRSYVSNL
T2 sequence (P54290 25-944 partner limits assumed): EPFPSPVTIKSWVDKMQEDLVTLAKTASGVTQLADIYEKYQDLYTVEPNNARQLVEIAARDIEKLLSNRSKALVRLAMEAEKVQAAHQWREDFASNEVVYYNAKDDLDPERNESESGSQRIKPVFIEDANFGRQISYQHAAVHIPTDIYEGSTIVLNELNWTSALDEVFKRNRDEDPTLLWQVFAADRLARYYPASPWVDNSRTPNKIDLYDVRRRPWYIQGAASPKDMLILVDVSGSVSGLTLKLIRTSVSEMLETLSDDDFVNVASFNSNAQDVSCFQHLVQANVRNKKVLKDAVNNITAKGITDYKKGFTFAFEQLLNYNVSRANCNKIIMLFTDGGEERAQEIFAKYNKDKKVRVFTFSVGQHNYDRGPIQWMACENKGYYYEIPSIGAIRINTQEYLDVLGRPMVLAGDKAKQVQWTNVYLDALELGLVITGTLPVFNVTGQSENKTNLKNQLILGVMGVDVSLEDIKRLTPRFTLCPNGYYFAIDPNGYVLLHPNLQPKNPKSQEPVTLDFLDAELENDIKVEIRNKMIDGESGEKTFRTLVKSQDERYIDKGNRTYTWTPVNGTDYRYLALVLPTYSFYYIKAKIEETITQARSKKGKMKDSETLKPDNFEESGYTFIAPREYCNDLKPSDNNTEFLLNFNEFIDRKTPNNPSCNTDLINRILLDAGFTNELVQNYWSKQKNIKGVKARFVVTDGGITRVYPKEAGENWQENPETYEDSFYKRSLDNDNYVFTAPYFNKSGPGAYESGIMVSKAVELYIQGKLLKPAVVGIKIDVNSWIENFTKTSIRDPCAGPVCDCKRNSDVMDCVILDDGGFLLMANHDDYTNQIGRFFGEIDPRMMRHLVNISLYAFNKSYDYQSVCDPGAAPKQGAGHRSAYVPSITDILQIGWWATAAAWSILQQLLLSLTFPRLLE
T2 sequence (P54290 945-1091 partner limits assumed): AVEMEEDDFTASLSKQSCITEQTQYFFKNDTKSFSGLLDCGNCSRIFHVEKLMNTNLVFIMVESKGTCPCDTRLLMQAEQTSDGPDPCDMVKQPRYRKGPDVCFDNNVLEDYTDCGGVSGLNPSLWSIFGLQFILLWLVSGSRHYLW
T2 sequence (P54287 whole entry partner): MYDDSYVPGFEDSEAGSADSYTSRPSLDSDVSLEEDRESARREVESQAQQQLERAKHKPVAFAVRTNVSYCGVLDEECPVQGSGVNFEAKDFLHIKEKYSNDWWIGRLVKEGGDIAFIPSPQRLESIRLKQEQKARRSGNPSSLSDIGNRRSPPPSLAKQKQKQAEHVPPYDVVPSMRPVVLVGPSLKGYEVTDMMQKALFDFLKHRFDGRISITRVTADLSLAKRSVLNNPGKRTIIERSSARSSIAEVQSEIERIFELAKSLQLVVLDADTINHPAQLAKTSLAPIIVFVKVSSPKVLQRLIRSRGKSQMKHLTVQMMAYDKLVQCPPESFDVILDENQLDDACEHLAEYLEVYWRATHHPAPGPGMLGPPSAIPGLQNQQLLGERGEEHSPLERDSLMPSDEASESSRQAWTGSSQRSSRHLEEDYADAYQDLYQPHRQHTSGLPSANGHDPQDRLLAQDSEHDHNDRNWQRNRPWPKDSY

With `COc1cc(NC(=O)N[C@@H](CC(C)C)C(=O)N[C@@H](Cc2ccc(OCc3ccccc3)cc2)C(=O)OC(C)(C)C)cc(OC)c1OC` (relative stereo) [Example 67, [S-(R*,R*)]-3-(4-Benzyloxy-phenyl)-2-{4-methyl-2-[3-(3,4,5-trimethoxy-phenyl)-ureido]-pentanoylamino}-propionic acid tert-butyl ester], the “Inhibition of Calcium Flux in IMR-32 Cells % Inhibition at 1 μM” value in data set [1] (1 μM) was 10%. The “Inhibition of Calcium Flux in IMR-32 Cells % Inhibition at 10 μM” value in data set [1] (10 μM) is 19%. Moreover, the concentration for half-maximal inhibition (IC50) in data set [2] was 3000 nM.

On to `CC(C)C[C@H](NC(=O)N1CCCCCC1)C(=O)N[C@@H](Cc1ccc(Cc2ccccc2)cc1)C(=O)NC(C)(C)C` [Example 53, [S-(R*,R*)]-Azepane-1-carboxylic acid {1-[2-(4-benzyl-phenyl)-1-tert-butylcarbamoyl-ethylcarbamoyl]-3-methyl-butyl}-amide], for which the melting point lay in the range of 165 to 166 °C. In data set [1], the inhibition at 1 µM was found to be 61% and the inhibition at 10 µM turned out to be 89%. For the same compound, the half-inhibitory concentration (IC50) in data set [2] is 140 nM.

In turn, `CC(C)C[C@H](NC(=O)N1CCCCCC1)C(=O)N[C@@H](Cc1ccc(NCc2ccccc2)cc1)C(=O)NC(C)(C)C` [Example 132, [S-(R*,R*)]-Azepane-1-carboxylic acid {1-[2-(4-benzylamino-phenyl)-1-tert-butylcarbamoyl-ethylcarbamoyl]-3-methyl-butyl}-amide] came in with a melting point of 89 to 90 °C. In data set [1], the inhibition at 1 µM was determined as 37%, the inhibition at 10 µM is 83% and the IC50 came out at 900 nM. The IC50 in data set [2] amounted to 910 nM.

For the compound `CC(C)C[C@H](NC(=O)N1CCCCCC1)C(=O)N[C@@H](Cc1ccc(C#CC(C)(C)C)cc1)C(=O)NC(C)(C)C` [Example 135, [S-(R*,R*)]-Azepane-1-carboxylic acid (1-{1-tert-butylcarbamoyl-2-[4-(3,3-dimethyl-but-1-ynyl)-phenyl]-ethylcarbamoyl}-3-methyl-butyl)-amide], the melting point is 180 to 181 °C. Moreover, in data set [1], the inhibition at 1 µM came to 43% and the inhibition at 10 µM was determined as 71%. Moreover, the concentration for half-maximal inhibition (IC50) in data set [2] came to 670 nM.

The compound `CC(C)C[C@H](NC(=O)N1CCCCCC1)C(=O)N[C@@H](Cc1ccc(C#CC2CCCCC2)cc1)C(=O)NC(C)(C)C` [Example 136, [S-(R*,R*)]-Azepane-1-carboxylic acid {1-[1-tert-butylcarbamoyl-2-(4-cyclohexylethynyl-phenyl)-ethylcarbamoyl]-3-methyl-butyl}-amide] came in with a melting point of 171 to 172 °C. In data set [1], the inhibition at 1 µM amounted to 45% and the inhibition at 10 µM came to 64%. Moreover, the IC50 in data set [2] came out at 1550 nM.

As for `CC(C)C[C@H](NC(=O)N1CCCCCC1)C(=O)N[C@@H](Cc1ccc(C#CCN2CCS(=O)(=O)CC2)cc1)C(=O)NC(C)(C)C` [Example 140, [S-(R*,R*)]-Azepane-1-carboxylic acid [1-(1-tert-butylcarbamoyl-2-{4-[3-(1,1-dioxo-1l,6-thiomorpholin-4-yl)-prop-1-ynyl]-phenyl}-ethylcarbamoyl)-3-methyl-butyl]-amide], the melting point fell in the range of 117 to 118 °C. Further, the IC50 in data set [2] turned out to be 3000 nM.

`CC(C)C[C@H](NC(=O)N1CCCCCC1)C(=O)N[C@@H](Cc1ccc(/C=C\C2CCCCC2)cc1)C(=O)NC(C)(C)C` [Example 142, [S-(R*,R*),Z]-Azepane-1-carboxylic acid (1-{1-tert-butylcarbamoyl-2-[4-(2-cyclohexyl-vinyl)-phenyl]-ethylcarbamoyl}-3-methyl-butyl)-amide] yielded a melting point of 168 to 169 °C. The half-maximal inhibitory concentration (IC50) in data set [2] came to 680 nM.

Regarding `CC(C)C[C@H](NC(=O)N1CCCCCC1)C(=O)N[C@@H](Cc1ccc(C=CC2(O)CCCCC2)cc1)C(=O)NC(C)(C)C` [Example 143, [S-(R*,R*)]-Azepane-1-carboxylic acid [1-(1-tert-butylcarbamoyl-2-{4-[2-(1-hydroxy-cyclohexyl)-vinyl]-phenyl}-ethylcarbamoyl)-3-methyl-butyl]-amide], the melting point was 125 °C (dec.). Also, in data set [1], the inhibition at 1 µM came out at 7% and the inhibition at 10 µM amounted to 58%. Moreover, the IC50 in data set [2] turned out to be 1300 nM.

`CC(C)C[C@H](NC(=O)N1CCCCCC1)C(=O)N[C@@H](Cc1ccc(CCc2ccccc2)cc1)C(=O)NC(C)(C)C` [Example 144, [S-(R*,R*)]-Azepane-1-carboxylic acid {1-[1-tert-butylcarbamoyl-2-(4-phenethyl-phenyl)-ethylcarbamoyl]-3-methyl-butyl}-amide] registered a melting point of 155 to 156 °C. In data set [1], the inhibition at 1 µM came out at 61% and the inhibition at 10 µM was 86%. For the same compound, the IC50 in data set [2] was 550 nM.

`CC(C)C[C@H](NC(=O)N1CCCCCC1)C(=O)N[C@@H](Cc1ccc(CCC(C)(C)C)cc1)C(=O)NC(C)(C)C` [Example 145, [S-(R*,R*)]-Azepane-1-carboxylic acid (1-{1-tert-butylcarbamoyl-2-[4-(3,3-dimethyl-butyl)-phenyl]-ethylcarbamoyl}-3-methyl-butyl)-amide] yielded a melting point of 180 to 181 °C. Besides, the inhibition at 1 µM in data set [1] turned out to be 48%. Further, in data set [2], the IC50 turned out to be 250 nM.

Compound `CC(C)C[C@H](NC(=O)N1CCCCCC1)C(=O)N[C@@H](Cc1ccc(CCC2CCCCC2)cc1)C(=O)NC(C)(C)C` [Example 146, [S-(R*,R*)]-Azepane-1-carboxylic acid (1-{1-tert-butylcarbamoyl-2-[4-(2-cyclohexyl-ethyl)-phenyl]-ethylcarbamoyl}-3-methyl-butyl)-amide] registered a melting point of 165 °C. In addition, in data set [1], the inhibition at 1 µM turned out to be 51%. The half-maximal inhibitory concentration (IC50) in data set [2] was determined as 220 nM.

`CC(C)C[C@H](NC(=O)N1CCCCCC1)C(=O)N[C@@H](Cc1ccc(CCc2ccccn2)cc1)C(=O)NC(C)(C)C` [Example 147, [S-(R*,R*)]-Azepane-1-carboxylic acid (1-{1-tert-butylcarbamoyl-2-[4-(2-pyridin-2-yl-ethyl)-phenyl]-ethylcarbamoyl}-3-methyl-butyl)-amide]: the melting point is 154 to 156 °C. In data set [1], the inhibition at 1 µM came to 25% and the inhibition at 10 µM came to 71%. The half-maximal inhibitory concentration (IC50) in data set [2] turned out to be 5100 nM.

On to `CC(C)C[C@H](NC(=O)N1CCCCCC1)C(=O)N[C@@H](Cc1ccc(CCCN2CCS(=O)(=O)CC2)cc1)C(=O)NC(C)(C)C` [Example 150, [S-(R*,R*)]-Azepane-1-carboxylic acid [1-(1-tert-butylcarbamoyl-2-{4-[3-(1,1-dioxo-1l,6-thiomorpholin-4-yl)-propyl]-phenyl}-ethylcarbamoyl)-3-methyl-butyl]-amide], for which the melting point lay in the range of 92 to 93 °C. Also, the IC50 in data set [2] stood at 3000 nM.

As to `CC(C)C[C@H](NC(=O)N1CCCCCC1)C(=O)N[C@@H](Cc1ccc(OCc2ccccc2)cc1)C(=O)NCCN1CCOCC1` [Example 186, [S-(R*,R*)]-Azepane-1-carboxylic acid {1-[2-(4-benzyloxy-phenyl)-1-(2-morpholin-4-ylethylcarbamoyl)-ethylcarbamoyl]-3-methyl-butyl}-amide], the IC50 turned out to be 1800 nM in data set [1] and 3000 nM in data set [2].

What is called IC50 is the midpoint of a concentration-inhibition curve. A word on the inhibition: it is how much of the control response was suppressed. As usually defined, the melting point is the temperature, or range, at which the solid turns liquid.
